Measured values reported in US8188102B2, “Amide derivative for inhibiting the growth of cancer cells” (Hanmi Holdings Co., Ltd., priority 2007, dated 2012).

Assays:
[1] = test system: A431 skin cancer cell line; test: Cancer cell growth inhibition, A431 (SRB); details: Homo sapiens, A-431, 72 h, read-out: ID50 (nM) A431
[2] = test system: SK-Br3 breast cancer cell line; test: Cancer cell growth inhibition, SK-Br3 (SRB); details: Homo sapiens, SK-BR-3, 72 h, read-out: ID50 (nM) SK-Br3

SMILES | IC50 [1] [nM] | IC50 [2] [nM]
C=CC(=O)N1CCC(Oc2cc3c(Nc4ccc(O)cc4Cl)ncnc3cc2OC)CC1 [Example 52, 1-(4-(4-(2-chloro-4-hydroxyphenylamino)-7-methoxyquinazolin-6-yloxy)piperidin-1-yl)pro-2-pen-1-one] | 176 | 30
C=CC(=O)N1CCC(Oc2cc3c(Nc4ccc(Oc5ccccc5)cc4)ncnc3cc2OC)CC1 [Example 48, 1-(4-(7-methoxy-4-(4-phenoxyphenylamino)quinazolin-6-yloxy)piperidin-1-yl)pro-2-pen-1-one] | > 1000 | 8
C=CC(=O)N1CCC(Oc2cc3c(Nc4cc(OC)c(Cl)cc4OC)ncnc3cc2OC)CC1 [Example 38, 1-(4-(4-(4-chloro-2,5-dimethoxyphenylamino)-7-methoxyquinazolin-6-yloxy)piperidin-1-yl)pro-2-pen-1-one] | > 10000 | > 10000
COc1cc2ncnc(Nc3cccc(Cl)c3F)c2cc1OC1CN(C(=O)/C=C/CN(C)C)C1 [Example 102, (E)-1-(3-(4-(3-chloro-2-fluorophenylamino)-7-methoxyquinazolin-6-yloxy)azetidin-1-yl)-4-(dimethylamino)but-2-en-1-one] | 9 | 8
C=CC(=O)N1CCC(Oc2cc3c(Nc4ccc(F)c(C)c4)ncnc3cc2OC)CC1 [Example 46, 1-(4-(4-(4-fluoro-3-methylphenylamino)-7-methoxyquinazolin-6-yloxy)piperidin-1-yl)pro-2-pen-1-one] | 8 | 2
C=CC(=O)N1CCC(Oc2cc3c(Nc4cccc(CCl)c4)ncnc3cc2OC)CC1 [Example 77, 1-(4-(4-(3-(chloromethyl)phenylamino)-7-methoxyquinazolin-6-yloxy)piperidin-1-yl)pro-2-pen-1-one] | 26 | 7
C=CC(=O)N1CC(Oc2cc3c(Nc4cccc(C#N)c4)ncnc3cc2OC)C1 [Example 27, 3-(6-(1-acryloylazetidin-3-yloxy)-7-methoxyquinazolin-4-ylamino)benzonitrile] | 17 | 3
C=CC(=O)N1CC[C@H](Oc2cc3c(Nc4ccc5c(cnn5Cc5cccc(F)c5)c4)ncnc3cc2OC)C1 [Example 12, 1-((3S)-3-(4-(1-(3-fluorobenzyl)-1H-indazol-5-ylamino)-7-methoxyquinazolin-6-yloxy)pyrrolidin-1-yl)pro-2-pen-1-one] | 19 | 3
C=CC(=O)N1CCC(Oc2cc3c(Nc4ccc(Cl)cc4)ncnc3cc2OC)CC1 [Example 70, 1-(4-(4-(4-chlorophenylamino)-7-methoxyquinazolin-6-yloxy)piperidin-1-yl)pro-2-pen-1-one] | 4.6 | 2.1
C=C(NC(C)=O)C(=O)N1CCC(Oc2cc3c(Nc4ccc(Cl)c(Cl)c4F)ncnc3cc2OC)CC1 [Example 91, N-(3-(4-(4-(3,4-dichloro-2-fluorophenylamino)-7-methoxyquinazolin-6-yloxy)piperidin-1-yl)-3-oxoprop-1-en-2-yl)acetamide] | 50 | 194
COC(=O)/C=C\C(=O)N1CC(Oc2cc3c(Nc4cccc(Cl)c4F)ncnc3cc2OC)C1 [Example 30, (Z)-methyl 4-(3-(4-(3-chloro-2-fluorophenylamino)-7-methoxyquinazolin-6-yloxy)azetidin-1-yl)-4-oxobut-2-enoate] | 1 | 0.6
COc1cc2ncnc(Nc3ccc(Cl)c(Cl)c3F)c2cc1OC1CCN(C(=O)/C=C\C(=O)O)CC1 [Example 86, (Z)-4-(4-(4-(3,4-dichloro-2-fluorophenylamino)-7-methoxyquinazolin-6-yloxy)piperidin-1-yl)-4-oxobut-2-enoic acid] | 322 | > 1000
C=CC(=O)N1CCC(Oc2cc3c(Nc4ccc(C)c(C)c4)ncnc3cc2OC)CC1 [Example 47, 1-(4-(4-(3,4-dimethylphenylamino)-7-methoxyquinazolin-6-yloxy)piperidin-1-yl)pro-2-pen-1-one] | 19 | 10
C=CC(=O)N1CCC(Oc2cc3c(Nc4ccc(Cl)cc4O)ncnc3cc2OC)CC1 [Example 53, 1-(4-(4-(4-chloro-2-hydroxyphenylamino)-7-methoxyquinazolin-6-yloxy)piperidin-1-yl)pro-2-pen-1-one] | 32 | 21
C=CC(=O)NCCOc1cc2c(Nc3ccc(F)c(Cl)c3F)ncnc2cc1OC [Example 21, N-(2-(4-(3-chloro-2,4-difluorophenylamino)-7-methoxyquinazolin-6-yloxy)ethyl)acrylamide] | 699 | 210
C=CC(=O)N1CCC(Oc2cc3c(Nc4cccc(S)c4)ncnc3cc2OC)CC1 [Example 76, 1-(4-(4-(3-mercaptophenylamino)-7-methoxyquinazolin-6-yloxy)piperidin-1-yl)pro-2-pen-1-one] | 300 | 100

Other lines, results leading:

IC50 [1] [nM] | IC50 [2] [nM] | SMILES
979 | 4 | C=CC(=O)N1CC[C@@H](Oc2cc3c(Nc4ccc(F)c(Cl)c4F)ncnc3cc2OC)C[C@@H]1C(=O)O [Example 134, (2R,4R)-1-acryloyl-4-(4-(3-chloro-2,4-difluorophenylamino)-7-methoxyquinazolin-6-yloxy)piperidin-2-carboxylic acid]
8 | 2.3 | C=CC(=O)N1CC[C@H](Oc2cc3c(Nc4ccc(F)c(Cl)c4F)ncnc3cc2OC)C[C@H]1C(=O)NCC [Example 122, (2S,4S)-1-acryloyl-4-(4-(3-chloro-2,4-difluorophenylamino)-7-methoxyquinazolin-6-yloxy)-N-ethylpiperidin-2-carboxamide]
165 | 39 | COc1cc2ncnc(Nc3ccc(Cl)c(Cl)c3F)c2cc1OC1CCN(C(=O)/C=C/CN(C)C)CC1 [Example 99, (E)-1-(4-(4-(3,4-dichloro-2-fluorophenylamino)-7-methoxyquinazolin-6-yloxy)piperidin-1-yl)-4-(dimethylamino)but-2-en-1-one]
4 | 8 | COc1cc2ncnc(Nc3ccc(F)c(Cl)c3F)c2cc1O[C@H]1CCN(C(=O)/C=C/CN(C)C)C1 [Example 92, (E)-1-((3S)-3-(4-(3-chloro-2,4-difluorophenylamino)-7-methoxyquinazolin-6-yloxy)pyrrolidin-1-yl)-4-(dimethylamino)but-2-en-1-one]
10 | 1 | C=CC(=O)N1CC[C@H](Oc2cc3c(Nc4ccc(F)c(Cl)c4F)ncnc3cc2OC)C[C@H]1C(=O)NO [Example 125, (2S,4S)-1-acryloyl-4-(4-(3-chloro-2,4-difluorophenylamino)-7-methoxyquinazolin-6-yloxy)-N-hydroxypiperidin-2-carboxamide]
36 | 11 | COc1cc2ncnc(Nc3ccc(F)c(Cl)c3F)c2cc1OC1CN(C(=O)/C=C/CN(C)C)C1 [Example 101, (E)-1-(3-(4-(3-chloro-2,4-difluorophenylamino)-7-methoxyquinazolin-6-yloxy)azetidin-1-yl)-4-(dimethylamino)but-2-en-1-one]
7.5 | 2.8 | C=CC(=O)N1CC[C@H](Oc2cc3c(Nc4ccc(F)c(Cl)c4F)ncnc3cc2OC)C[C@H]1C(=O)NC(C)C [Example 124, (2S,4S)-1-acryloyl-4-(4-(3-chloro-2,4-difluorophenylamino)-7-methoxyquinazolin-6-yloxy)-N-isopropylpiperidin-2-carboxamide]
1.7 | 1.3 | C=CC(=O)N1CC[C@@H](Oc2cc3c(Nc4ccc(F)c(Cl)c4F)ncnc3cc2OC)C[C@@H]1C(=O)NO [Example 137, (2R,4R)-1-acryloyl-4-(4-(3-chloro-2,4-difluorophenylamino)-7-methoxyquinazolin-6-yloxy)-N-hydroxypiperidin-2-carboxamide]
39 | 13 | COc1cc2ncnc(Nc3ccc(Cl)c(Cl)c3F)c2cc1OC1CCN(C(=O)/C=C/Cl)CC1 [Example 90, (E)-3-chloro-1-(4-(4-(3,4-dichloro-2-fluorophenylamino)-7-methoxyquinazolin-6-yloxy)piperidin-1-yl)prop-2-en-1-one]
10 | 30 | C=C(CN1CCOCC1)C(=O)N1CCC(Oc2cc3c(Nc4ccc(F)c(Cl)c4F)ncnc3cc2OC)CC1 [Example 110, 1-(4-(4-(3-chloro-2,4-difluorophenylamino)-7-methoxyquinazolin-6-yloxy)piperidin-1-yl)-2-(morpholinomethyl)prop-2-en-1-one]
1 | 0.5 | C=C(CN1CCN(C)CC1)C(=O)N1CC(Oc2cc3c(Nc4ccc(F)c(Cl)c4F)ncnc3cc2OC)C1 [Example 106, 1-(3-(4-(3-chloro-2,4-difluorophenylamino)-7-methoxyquinazolin-6-yloxy)azetidin-1-yl)-2-((4-methylpiperazin-1-yl)methyl)prop-2-en-1-one]
9.1 | 6 | C=C(CN1CCCCC1)C(=O)N1CC(Oc2cc3c(Nc4ccc(F)c(Cl)c4F)ncnc3cc2OC)C1 [Example 108, 1-(3-(4-(3-chloro-2,4-difluorophenylamino)-7-methoxyquinazolin-6-yloxy)azetidin-1-yl)-2-(piperidin-1-ylmethyl)prop-2-en-1-one]
14 | 85 | COc1cc2ncnc(Nc3ccc(Cl)c(Cl)c3F)c2cc1OC1CCN(C(=O)/C=C\Cl)CC1 [Example 89, (Z)-3-chloro-1-(4-(4-(3,4-dichloro-2-fluorophenylamino)-7-methoxyquinazolin-6-yloxy)piperidin-1-yl)prop-2-en-1-one]
33 | 128 | COc1cc2ncnc(Nc3ccc(F)c(Cl)c3F)c2cc1O[C@H]1CCN(C(=O)C#CCN(C)C)C1 [Example 5, 1-((3S)-3-(4-(3-chloro-2,4-difluorophenylamino)-7-methoxyquinazolin-6-yloxy)pyrrolidin-1-yl)-4-(dimethylamino)but-2-yn-1-one]
